Structures are written as SMILES.

In the test the target is Beta-secretase 1 (Homo sapiens, UniProt P56817). Briefly: Inhibition of human recombinant BACE1 by FRET assay.
Beta-secretase 1, sequence (P56817 whole entry): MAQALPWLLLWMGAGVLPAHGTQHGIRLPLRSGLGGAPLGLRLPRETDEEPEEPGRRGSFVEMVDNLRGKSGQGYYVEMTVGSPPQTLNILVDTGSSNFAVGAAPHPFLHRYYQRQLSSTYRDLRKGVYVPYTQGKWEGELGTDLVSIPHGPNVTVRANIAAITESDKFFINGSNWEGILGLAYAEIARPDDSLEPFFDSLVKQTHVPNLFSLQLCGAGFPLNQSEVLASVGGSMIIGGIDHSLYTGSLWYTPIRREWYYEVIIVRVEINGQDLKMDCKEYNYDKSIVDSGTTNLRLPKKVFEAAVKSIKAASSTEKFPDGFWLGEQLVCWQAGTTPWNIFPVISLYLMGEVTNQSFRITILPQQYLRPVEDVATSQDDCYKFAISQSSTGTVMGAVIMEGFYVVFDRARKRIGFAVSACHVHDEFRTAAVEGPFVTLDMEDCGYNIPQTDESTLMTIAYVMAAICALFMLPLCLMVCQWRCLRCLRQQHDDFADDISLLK
In general, Ki refers to a dissociation constant, usually derived from enzyme kinetics or from competition with a known ligand. For the compound `O=C(Nc1nc(-c2ccc(F)cc2)c[nH]1)c1ccc2c(c1)Nc1ccccc1NC2=O`, the Ki is 0.293 µM. For the compound `O=C(Nc1ccncc1)c1ccc2c(c1)Nc1ccccc1NC2=O`, the Ki was determined as 0.295 µM. In the case of `O=C(Nc1nc2ccncc2[nH]1)c1ccc2c(c1)Nc1ccccc1NC2=O`, the Ki turned out to be 0.309 µM. On to `O=C(Nc1nc2ccc(F)cc2[nH]1)c1ccc2c(c1)Nc1ccccc1NC2=O`, for which the Ki stood at 0.244 µM. As to `O=C(Nc1ccc(F)cc1)c1ccc2c(c1)Nc1ccccc1NC2=O`, the Ki came out at 0.211 µM. With `O=C(Nc1nc(-c2ccncc2)c[nH]1)c1ccc2c(c1)Nc1ccccc1NC2=O` the figure was 0.348 µM; with `C[C@@H](NC(=O)c1cc(NS(C)(=O)=O)cc(C(=O)N[C@@H](Cc2ccccc2)[C@@H](O)CNC2CC2)c1)c1ccc(F)cc1`, 0.01 µM.

The values above are taken from ChEMBL document CHEMBL1154184, “Rational design and synthesis of potent dibenzazepine motifs as beta-secretase inhibitors” (J Med Chem, 2009).
